Columns and labels:
[1] = compound: Cc1nc(-c2cn3c(n2)-c2ccc(-c4cnn(C(C)(C)C(N)=O)c4)cc2OCC3)n(C(C)C)n1 [Taselisib]; conditions: max 10 µM
How it was run: (§1)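 Cancer cell lines in 1536-well plates (7.5 μl DMEM/F12 or RPMI, 10% FBS) were held 24 hours at 37°C and 5% CO2 and then dosed for 72 hours at a final DMSO of typically 0.2%. Viability was taken from CellTiter-Glo 2.0 luminescence, scaled between blank-well and DMSO-well means. Curves were fitted as two-parameter logistic models with a non-linear mixed effects model, from which the single-agent IC50 was taken.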

[2] = compound: C[C@@H](c1ccc2nccn2c1)n1nnc2ncc(-c3cnn(C)c3)nc21 [Savolitinib]; conditions: max 1 µM
How it was run: as §1

[3] = compound: COc1cccc2c1C(=O)c1c(O)c3c(c(O)c1C2=O)C[C@@](O)(C(=O)CO)C[C@@H]3O[C@H]1C[C@H](N)[C@H](O)[C@H](C)O1 [Doxorubicin]; conditions: max 1 µM
How it was run: as §1

[4] = compound: CN(CC[C@H](CSC1=CC=CC=C1)NC2=C(C=C(C=C2)S(=O)(=O)NC(=O)C3=CC=C(C=C3)N4CCC(CC4)[C@H](C5=CC=CC=C5C6=CC=C(C=C6)Cl)O)S(=O)(=O)C(F)(F)F)CCO [AZD4320]; conditions: max 1 µM
How it was run: as §1

[5] = compound: C[C@@H](Oc1cc(-c2cnn(C3CCNCC3)c2)cnc1N)c1c(Cl)ccc(F)c1Cl [Crizotinib]; conditions: max 10 µM
How it was run: as §1

[6] = compound: C=CCn1c(=O)c2cnc(Nc3ccc(N4CCN(C)CC4)cc3)nc2n1-c1cccc(C(C)(C)O)n1 [AZD1775]; conditions: max 3 µM
How it was run: as §1

[7] = compound: CC1(C)CCC(CN2CCN(c3ccc(C(=O)NS(=O)(=O)c4ccc(NCC5CCOCC5)c([N+](=O)[O-])c4)c(Oc4cnc5[nH]ccc5c4)c3)CC2)=C(c2ccc(Cl)cc2)C1 [Venetoclax]; conditions: max 1 µM
How it was run: as §1

[8] = compound: Cc1c2c(nn1C)CSCc1cc(n(C)n1)CSc1cc(c3ccccc3c1)OCCCc1c(C(=O)O)n(C)c3c-2c(Cl)ccc13 [AZD5991]; conditions: max 1 µM
How it was run: as §1

[9] = compound: CCc1c2c(nc3ccc(O)cc13)-c1cc3c(c(=O)n1C2)COC(=O)[C@]3(O)CC [SN-38]; conditions: max 0.3 µM
How it was run: as §1

[10] = compound: CC1=C(C(=CC=C1)Cl)NC(=O)C2=CN=C(S2)NC3=CC(=NC(=N3)C)N4CCN(CC4)CCO [Dasatinib]; conditions: max 2 µM
How it was run: as §1

[11] = compound: CS(=O)(=O)CCNCc1ccc(-c2ccc3ncnc(Nc4ccc(OCc5cccc(F)c5)c(Cl)c4)c3c2)o1 [Lapatinib]; conditions: max 10 µM
How it was run: as §1

[12] = compound: C[C@@H]1COCCN1C2=NC(=NC(=C2)C3(CC3)[S@](=N)(=O)C)C4=C5C=CNC5=NC=C4 [AZD6738]; conditions: max 10 µM
How it was run: as §1

[13] = compound: CCN(CCO)CCCOc1ccc2c(Nc3cc(CC(=O)Nc4cccc(F)c4)[nH]n3)ncnc2c1 [AZD2811]; conditions: max 1 µM
How it was run: as §1

[14] = compound: CC(C)n1c(=O)n(C)c2cnc3cc(F)c(-c4ccc(OCCCN5CCCCC5)nc4)cc3c21 [AZD1390]; conditions: max 0.3 µM
How it was run: as §1

[15] = compound: COc1cc(Nc2ncc3c(n2)-c2ccc(Cl)cc2C(c2c(F)cccc2OC)=NC3)ccc1C(=O)O [Alisertib]; conditions: max 10 µM
How it was run: as §1

[16] = compound: C1CN(CCC1(C(=O)N[C@@H](CCO)C2=CC=C(C=C2)Cl)N)C3=NC=NC4=C3C=CN4 [Capivasertib]; conditions: max 10 µM
How it was run: as §1

[17] = compound: CC(=O)c1c(C)c2cnc(Nc3ccc(N4CCNCC4)cn3)nc2n(C2CCCC2)c1=O [Palbociclib]; conditions: max 10 µM
How it was run: as §1

[18] = compound: COc1nnc2ccc(N3CCC(c4ccc(OCCN5CCN(C)C(=O)[C@H]5C)cc4)CC3)nn12 [AZD5153]; conditions: max 1 µM
How it was run: as §1

[19] = compound: Cn1cnc2c(F)c(Nc3ccc(Br)cc3Cl)c(C(=O)NOCCO)cc21 [Selumetinib]; conditions: max 10 µM
How it was run: as §1

[20] = compound: C[C@@H](Nc1cc(F)cc(F)c1)c1cc(C(=O)N(C)C)cc2c(=O)cc(N3CCOCC3)oc12 [AZD8186]; conditions: max 3 µM
How it was run: as §1

[21] = compound: Cc1cc2ncnn2cc1Nc1ncc2c(n1)n(C1CCOCC1)c(=O)n2C [AZD7648]; conditions: max 10 µM
How it was run: as §1

[22] = compound: CN(C)CCCOc1ccc(-c2ccc3ncc4c(c3c2)n(C2CCOCC2)c(=O)n4C)cn1 [AZD0156]; conditions: max 3 µM
How it was run: as §1

[23] = compound: COc1cccc(OCCCN)c1-c1cc(Nc2cnc(C#N)cn2)n[nH]1 [Prexasertib]; conditions: max 1 µM
How it was run: as §1

[24] = compound: O=C(c1cc(Cc2n[nH]c(=O)c3ccccc23)ccc1F)N1CCN(C(=O)C2CC2)CC1 [Olaparib]; conditions: max 10 µM
How it was run: as §1

[25] = compound: CC(=O)Nc1cccc(-n2c(=O)n(C3CC3)c(=O)c3c(Nc4ccc(I)cc4F)n(C)c(=O)c(C)c32)c1 [Trametinib]; conditions: max 1 µM
How it was run: as §1

[26] = compound: COc1cc2ncnc(Nc3ccc(F)c(Cl)c3)c2cc1OCCCN1CCOCC1 [Gefitinib]; conditions: max 10 µM
How it was run: as §1

[27] = compound: NC1(c2ccc(-c3nc4ccn5c(=O)[nH]nc5c4cc3-c3ccccc3)cc2)CCC1 [MK-2206]; conditions: max 10 µM
How it was run: as §1

[28] = compound: CC1=CN2[C@@H](C1)C=NC3=CC(=C(C=C3C2=O)OC)OCCCCCOC4=C(C=C5C(=C4)N=C[C@@H]6CC(=CN6C5=O)C)OC [SG3199]; conditions: max 0.001 µM
How it was run: as §1

Cell Line	IC50, cell viability 72 h [1] [nM]	IC50, cell viability 72 h [2] [nM]	IC50, cell viability 72 h [3] [nM]	IC50, cell viability 72 h [4] [nM]	IC50, cell viability 72 h [5] [nM]	IC50, cell viability 72 h [6] [nM]	IC50, cell viability 72 h [7] [nM]	IC50, cell viability 72 h [8] [nM]	IC50, cell viability 72 h [9] [nM]	IC50, cell viability 72 h [10] [nM]	IC50, cell viability 72 h [11] [nM]	IC50, cell viability 72 h [12] [nM]	IC50, cell viability 72 h [13] [nM]	IC50, cell viability 72 h [14] [nM]	IC50, cell viability 72 h [15] [nM]	IC50, cell viability 72 h [16] [nM]	IC50, cell viability 72 h [17] [nM]	IC50, cell viability 72 h [18] [nM]	IC50, cell viability 72 h [19] [nM]	IC50, cell viability 72 h [20] [nM]	IC50, cell viability 72 h [21] [nM]	IC50, cell viability 72 h [22] [nM]	IC50, cell viability 72 h [23] [nM]	IC50, cell viability 72 h [24] [nM]	IC50, cell viability 72 h [25] [nM]	IC50, cell viability 72 h [26] [nM]	IC50, cell viability 72 h [27] [nM]	IC50, cell viability 72 h [28] [nM]
NCI-H1838 (Lung Adenocarcinoma)	5860	> 1000	> 1000	> 1000	> 10000	2440	> 1000	> 1000	> 300	> 2000	> 10000	> 10000	> 1000	> 300	> 10000	> 10000	> 10000	> 1000	> 10000	> 3000	> 10000	> 3000	212	> 10000	> 1000	> 10000	> 10000	> 1
HCC1500 (Breast Carcinoma)	> 10000	> 1000	> 1000	45.2	> 10000	2900	291	> 1000	213	> 2000	> 10000	> 10000	> 1000	> 300	> 10000	> 10000	> 10000	> 1000	> 10000	> 3000	> 10000	> 3000	> 1000	> 10000	> 1000	> 10000	> 10000	> 1
NCI-H650 (Lung Adenocarcinoma)	> 10000	> 1000	> 1000	> 1000	> 10000	2650	> 1000	> 1000	100	> 2000	> 10000	> 10000	> 1000	> 300	> 10000	> 10000	> 10000	> 1000	> 10000	> 3000	> 10000	> 3000	283	> 10000	> 1000	> 10000	> 10000	> 1

Reference: the supplement of paper PMC11061612
